Values of other authors, collected in patent US7517878B2, “Heteroarylaminopyrazole derivatives useful for the treatment of diabetes” (Bayer Pharamceuticals Corporation, priority 2004, dated 2009).
pEC50: −log10 of the molar value.

System: INS-1 cells
Settings: INS-1 cells maintained in the presence of beta-mercaptoethanol; Hohmeier, et al., Diabetes 49:424, 2002; read-out: EC50 of insulin secretion in response to glucose

- pEC50: 2.22
SMILES: O=C[C@H](O)[C@@H](O)[C@H](O)[C@H](O)CO [glucose]
